Laboratory results reported in patent US20250197406A1, “INDAZOLES AS HEMATOPOIETIC PROGENITOR KINASE 1 (HPK1) INHIBITORS AND METHODS FOR USING SAME” (1ST Biotherapeutics, Inc., priority 2022, published 2025).
Where a name gives a salt, the structure may show the parent alone.

biological target: recombinant human HPK1 (Homo sapiens (Human), UniProt Q92918); experiment: HPK1 kinase assay (Promega ADP-Glo kinase assay); assay type: biochemical; details: In vitro activity against HPK1, 5 ng HPK1, MBP substrate, ATP 25 μM, 30° C. 40 minutes
Procedure, shortened: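 ADP-Glo luminescence assay with 5 ng recombinant human HPK1, MBP substrate and ATP (added as 25 µM solution) in Tris pH 7.5, 20 mM MgCl2, BSA, DTT, 0.5% DMSO. Reaction ran 40 min at 30 °C. IC50 was fitted from percent inhibition over an inhibitor concentration range.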

Chain of recombinant human HPK1 (Q92918 whole entry): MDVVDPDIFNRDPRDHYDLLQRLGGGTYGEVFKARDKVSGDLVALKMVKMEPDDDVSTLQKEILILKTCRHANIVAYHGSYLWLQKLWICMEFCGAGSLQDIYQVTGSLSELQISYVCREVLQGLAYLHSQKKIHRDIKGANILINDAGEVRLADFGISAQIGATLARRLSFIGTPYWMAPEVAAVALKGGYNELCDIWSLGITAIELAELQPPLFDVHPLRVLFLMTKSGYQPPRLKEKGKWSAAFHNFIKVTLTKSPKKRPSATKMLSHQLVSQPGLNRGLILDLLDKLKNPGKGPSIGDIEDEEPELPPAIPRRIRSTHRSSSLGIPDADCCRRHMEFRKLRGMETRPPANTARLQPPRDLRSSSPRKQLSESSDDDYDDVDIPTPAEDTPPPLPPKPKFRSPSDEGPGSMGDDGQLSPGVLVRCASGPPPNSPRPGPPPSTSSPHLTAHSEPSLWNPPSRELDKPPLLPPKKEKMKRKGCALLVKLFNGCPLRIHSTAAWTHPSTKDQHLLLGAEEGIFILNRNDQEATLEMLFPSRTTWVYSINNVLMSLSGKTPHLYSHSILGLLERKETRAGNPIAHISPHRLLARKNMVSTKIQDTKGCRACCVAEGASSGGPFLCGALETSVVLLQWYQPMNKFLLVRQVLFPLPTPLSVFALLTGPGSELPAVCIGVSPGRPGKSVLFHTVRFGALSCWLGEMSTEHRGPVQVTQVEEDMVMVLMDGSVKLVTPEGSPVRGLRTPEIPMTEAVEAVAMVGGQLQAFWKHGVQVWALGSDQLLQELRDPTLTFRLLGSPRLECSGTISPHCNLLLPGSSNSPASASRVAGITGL

Structure (SMILES)	IC50 [µM]
O=CNC(c1c(F)c(C(F)(F)F)c(-c2cn3cc(NC(=O)[C@@H]4C[C@@H]4F)nc3cn2)c2cn[nH]c12)C1CC1 (stereo partly drawn) [Example 115, (1S,2S)-N-(6-(7-(cyclopropyl(formamido)methyl)-6-fluoro-5-(trifluoromethyl)-1H-indazol-4-yl)imidazo[1,2-a]pyrazin-2-yl)-2-fluorocyclopropane-1-carboxamide]	< 0.1
CC(C)Nc1c(F)c(Cl)c(-c2cn3cc(NC(=O)CC4COC4)nc3cn2)c2cn[nH]c12 [Example 116, N-(6-(5-chloro-6-fluoro-7-(isopropylamino)-1H-indazol-4-yl)imidazo[1,2-a]pyrazin-2-yl)-2-(oxetan-3-yl)acetamide]	< 0.1
CCCCC(=O)Nc1cn2cc(-c3c(Cl)c(F)c(NC(C)C)c4[nH]ncc34)ncc2n1 [Example 117, N-(6-(5-chloro-6-fluoro-7-(isopropylamino)-1H-indazol-4-yl)imidazo[1,2-a]pyrazin-2-yl)pentanamide]	< 0.1
O=C(Nc1cn2cc(-c3c(C(F)(F)F)c(F)c(C(O)C4CC4)c4[nH]ncc34)ncc2n1)[C@@H]1C[C@@H]1CO (stereo partly drawn) [Example 118, (1R,2S)-N-(6-(7-(cyclopropyl(hydroxy)methyl)-6-fluoro-5-(trifluoromethyl)-1H-indazol-4-yl)imidazo[1,2-a]pyrazin-2-yl)-2-(hydroxymethyl)cyclopropane-1-carboxamide]	< 0.1
CCNC(=O)Nc1cn2cc(-c3c(Cl)c(F)c(NC(C)C)c4[nH]ncc34)ncc2n1 [Example 119, 1-(6-(5-chloro-6-fluoro-7-(isopropylamino)-1H-indazol-4-yl)imidazo[1,2-a]pyrazin-2-yl)-3-ethylurea]	< 0.1
CC(C)Nc1c(F)c(Cl)c(-c2cn3cc(NC(=O)N4CCNCC4)nc3cn2)c2cn[nH]c12 [Example 120, N-(6-(5-chloro-6-fluoro-7-(isopropylamino)-1H-indazol-4-yl)imidazo[1,2-a]pyrazin-2-yl)piperazine-1-carboxamide]	< 0.1
CNC(=O)Nc1cn2cc(-c3c(Cl)c(F)c(NC(C)C)c4[nH]ncc34)ncc2n1 [Example 121, 1-(6-(5-chloro-6-fluoro-7-(isopropylamino)-1H-indazol-4-yl)imidazo[1,2-a]pyrazin-2-yl)-3-methylurea]	0.501 to 1
CC(C)Nc1c(F)c(Cl)c(-c2cn3cc(NC(=O)C(F)F)nc3cn2)c2cn[nH]c12 [Example 122, N-(6-(5-chloro-6-fluoro-7-(isopropylamino)-1H-indazol-4-yl)imidazo[1,2-a]pyrazin-2-yl)-2,2-difluoroacetamide]	< 0.1
CC(C)Nc1c(F)c(Cl)c(-c2cn3cc(NC(=O)C4CCN(C)CC4)nc3cn2)c2cn[nH]c12 [Example 123, N-(6-(5-chloro-6-fluoro-7-(isopropylamino)-1H-indazol-4-yl)imidazo[1,2-a]pyrazin-2-yl)-1-methylpiperidine-4-carboxamide]	< 0.1
CC(C)Nc1c(F)c(Cl)c(-c2cn3cc(NC(=O)N4CCCC4)nc3cn2)c2cn[nH]c12 [Example 124, N-(6-(5-chloro-6-fluoro-7-(isopropylamino)-1H-indazol-4-yl)imidazo[1,2-a]pyrazin-2-yl)pyrrolidine-1-carboxamide]	< 0.1
CC(C)Nc1c(F)c(Cl)c(-c2cn3cc(NC(=O)C4CCOC4)nc3cn2)c2cn[nH]c12 (centres unmarked) [Example 125, N-(6-(5-chloro-6-fluoro-7-(isopropylamino)-1H-indazol-4-yl)imidazo[1,2-a]pyrazin-2-yl)tetrahydrofuran-3-carboxamide]	< 0.1
CC(C)Nc1c(F)c(Cl)c(-c2cn3cc(NC(=O)OC4CCC4)nc3cn2)c2cn[nH]c12 [Example 126, cyclobutyl (6-(5-chloro-6-fluoro-7-(isopropylamino)-1H-indazol-4-yl)imidazo[1,2-a]pyrazin-2-yl)carbamate formate]	< 0.1
COc1c(F)c(C(O)C2CC2)c2[nH]ncc2c1-c1cn2cc(NC(=O)[C@@H]3C[C@@H]3F)nc2cn1 (stereo partly drawn) [Example 127, (1S,2S)-N-(6-(7-(cyclopropyl(hydroxy)methyl)-6-fluoro-5-methoxy-1H-indazol-4-yl)imidazo[1,2-a]pyrazin-2-yl)-2-fluorocyclopropane-1-carboxamide]	< 0.1
COc1c(F)c(C(C)O)c2[nH]ncc2c1-c1cn2cc(NC(=O)[C@@H]3C[C@@H]3F)nc2cn1 (stereo partly drawn) [Example 128, (1S,2S)-2-fluoro-N-(6-(6-fluoro-7-(1-hydroxyethyl)-5-methoxy-1H-indazol-4-yl)imidazo[1,2-a]pyrazin-2-yl)cyclopropane-1-carboxamide]	< 0.1
CC(C)Nc1c(F)c(Cl)c(-c2cn3cc(NC(=O)CO)nc3cn2)c2cn[nH]c12 [Example 129, N-(6-(5-chloro-6-fluoro-7-(isopropylamino)-1H-indazol-4-yl)imidazo[1,2-a]pyrazin-2-yl)-2-hydroxyacetamide]	< 0.1
CC(C)Nc1c(F)c(Cl)c(-c2cn3cc(NC(=O)CCO)nc3cn2)c2cn[nH]c12 [Example 130, N-(6-(5-chloro-6-fluoro-7-(isopropylamino)-1H-indazol-4-yl)imidazo[1,2-a]pyrazin-2-yl)-3-hydroxypropanamide]	< 0.1
CC(C)Nc1c(F)c(Cl)c(-c2cn3cc(NC(=O)C4COC4)nc3cn2)c2cn[nH]c12 [Example 131, N-(6-(5-chloro-6-fluoro-7-(isopropylamino)-1H-indazol-4-yl)imidazo[1,2-a]pyrazin-2-yl)oxetane-3-carboxamide]	< 0.1
C[C@H](N[S@@+]([O-])C(C)(C)C)c1c(F)c(Cl)c(-c2cn3cc(NC(=O)[C@@H]4C[C@@H]4F)nc3cn2)c2cn[nH]c12 [Example 132, (1S,2S)-N-(6-(7-((S)-1-(((S)-tert-butylsulfinyl)amino)ethyl)-5-chloro-6-fluoro-1H-indazol-4-yl)imidazo[1,2-a]pyrazin-2-yl)-2-fluorocyclopropane-1-carboxamide]	< 0.1
C[C@@H](N[S@+]([O-])C(C)(C)C)c1c(F)c(Cl)c(-c2cn3cc(NC(=O)[C@@H]4C[C@@H]4F)nc3cn2)c2cn[nH]c12 [Example 133, (1S,2S)-N-(6-(7-((R)-1-(((R)-tert-butylsulfinyl)amino)ethyl)-5-chloro-6-fluoro-1H-indazol-4-yl)imidazo[1,2-a]pyrazin-2-yl)-2-fluorocyclopropane-1-carboxamide]	< 0.1
CC(=O)Nc1cn2cc(-c3c(Cl)c(F)c([C@H](C)N[S@@+]([O-])C(C)(C)C)c4[nH]ncc34)ncc2n1 [Example 134, N-(6-(7-((S)-1-(((S)-tert-butylsulfinyl)amino)ethyl)-5-chloro-6-fluoro-1H-indazol-4-yl)imidazo[1,2-a]pyrazin-2-yl)acetamide]	0.101 to 0.5
CC(=O)Nc1cn2cc(-c3c(Cl)c(F)c([C@@H](C)N[S@+]([O-])C(C)(C)C)c4[nH]ncc34)ncc2n1 [Example 135, N-(6-(7-((R)-1-(((R)-tert-butylsulfinyl)amino)ethyl)-5-chloro-6-fluoro-1H-indazol-4-yl)imidazo[1,2-a]pyrazin-2-yl)acetamide]	< 0.1
COc1c(F)c(N(C)C)c2[nH]ncc2c1-c1cn2cc(NC(=O)[C@@H]3C[C@@H]3F)nc2cn1 [Example 136, (1S,2S)-N-(6-(7-(dimethylamino)-6-fluoro-5-methoxy-1H-indazol-4-yl)imidazo[1,2-a]pyrazin-2-yl)-2-fluorocyclopropane-1-carboxamide]	< 0.1
C[C@@H](NC(=O)C(F)(F)F)c1c(F)c(Cl)c(-c2cn3cc(NC(=O)[C@@H]4C[C@@H]4F)nc3cn2)c2cn[nH]c12 [Example 137, (1S,2S)-N-(6-(5-chloro-6-fluoro-7-((R)-1-(2,2,2-trifluoroacetamido)ethyl)-1H-indazol-4-yl)imidazo[1,2-a]pyrazin-2-yl)-2-fluorocyclopropane-1-carboxamide]	< 0.1
CC(=O)Nc1cn2cc(-c3c(Cl)c(F)c([C@H](C)NC(=O)C(F)(F)F)c4[nH]ncc34)ncc2n1 [Example 138, (S)-N-(1-(4-(2-acetamidoimidazo[1,2-a]pyrazin-6-yl)-5-chloro-6-fluoro-1H-indazol-7-yl)ethyl)-2,2,2-trifluoroacetamide]	< 0.1
CC(=O)Nc1cn2cc(-c3c(Cl)c(F)c([C@@H](C)NC(=O)C(F)(F)F)c4[nH]ncc34)ncc2n1 [Example 139, (R)-N-(1-(4-(2-acetamidoimidazo[1,2-a]pyrazin-6-yl)-5-chloro-6-fluoro-1H-indazol-7-yl)ethyl)-2,2,2-trifluoroacetamide]	< 0.1
CC(=O)Nc1cn2cc(-c3c(Cl)c(F)c([C@H](C)NC=O)c4[nH]ncc34)ncc2n1 [Example 140, (S)-N-(6-(5-chloro-6-fluoro-7-(1-formamidoethyl)-1H-indazol-4-yl)imidazo[1,2-a]pyrazin-2-yl)acetamide]	< 0.1
COc1c(F)c(NC(C)C)c2[nH]ncc2c1-c1cn2cc(NC(=O)[C@@H]3C[C@@H]3F)nc2cn1 [Example 141, (1S,2S)-2-fluoro-N-(6-(6-fluoro-7-(isopropylamino)-5-methoxy-1H-indazol-4-yl)imidazo[1,2-a]pyrazin-2-yl)cyclopropane-1-carboxamide]	< 0.1
CC(=O)N1CC(Oc2c(F)c(Cl)c(-c3cn4cc(NC(=O)[C@@H]5C[C@@H]5F)nc4cn3)c3cn[nH]c23)C1 [Example 142, (1S,2S)-N-(6-(7-((1-acetylazetidin-3-yl)oxy)-5-chloro-6-fluoro-1H-indazol-4-yl)imidazo[1,2-a]pyrazin-2-yl)-2-fluorocyclopropane-1-carboxamide]	0.101 to 0.5
O=C(Nc1cn2cc(-c3c(Cl)c(F)c(OC4CNC4)c4[nH]ncc34)ncc2n1)[C@@H]1C[C@@H]1F [Example 143, (1S,2S)-N-(6-(7-(azetidin-3-yloxy)-5-chloro-6-fluoro-1H-indazol-4-yl)imidazo[1,2-a]pyrazin-2-yl)-2-fluorocyclopropane-1-carboxamide formate]	0.501 to 1
